Measurements as given in patent US11642336B2, “5-HT2A agonists for use in treatment of depression” (priority 2019, dated 2023).
Counter-ions that a name gives are not always drawn. Like-named read-outs stand apart in the source and are kept apart here. Marks after values point to notes of the source that are not given here.

Experiments:
human 5-HT2A = human 5-HT2A (Homo sapiens (Human), UniProt P28223); test: cell-based; type: cell-based; conditions: for EC50: agonist potency, n = 3-4; for Selectivity EC50 5-HT2C/EC50 5-HT2A: Ca2+/Fluo-4 assay, bounds are conservative estimates; for loss of potency at 5-HT2A compared to compound 8 (factor): nitrogen substituents (tertiary amines)
5-HT2C = 5-HT2C (Homo sapiens (Human), UniProt P28335); test: Ca2+/Fluo-4 assay, stable h5-HT2C-HEK293 cell line; type: cell-based; conditions: for EC50: agonist potency, n = 3-4; for 5-HT2C Rmax ± S.E.M: % of the Rmax of 5-HT; for 5-HT2C agonist activity (n.a./w.a.): tested up to 50 μM;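 for all read-outs here: Agonist-induced intracellular Ca2+ rise read by Fluo-4 fluorescence in HEK293 cells stably expressing the human 5-HT2C receptor, each compound run in duplicate on three or more occasions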
5-HT2C, sequence (P28335 whole entry, looked up): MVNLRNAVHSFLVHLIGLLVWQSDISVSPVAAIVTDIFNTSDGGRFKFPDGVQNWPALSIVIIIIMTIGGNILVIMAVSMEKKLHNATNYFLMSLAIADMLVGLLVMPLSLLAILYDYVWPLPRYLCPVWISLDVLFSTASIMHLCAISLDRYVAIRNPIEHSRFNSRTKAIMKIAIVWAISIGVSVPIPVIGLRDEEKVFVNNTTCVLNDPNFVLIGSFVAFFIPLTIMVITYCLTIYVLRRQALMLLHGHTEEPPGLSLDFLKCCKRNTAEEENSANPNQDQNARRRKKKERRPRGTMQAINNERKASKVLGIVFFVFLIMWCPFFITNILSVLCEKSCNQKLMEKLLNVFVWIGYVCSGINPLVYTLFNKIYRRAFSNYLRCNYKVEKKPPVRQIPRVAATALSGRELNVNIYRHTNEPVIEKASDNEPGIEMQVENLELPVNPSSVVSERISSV
Description: The functional properties of the compounds were characterised at stable HEK293 cell lines stably expressing the human 5-HT2A receptor or human 5-HT2C receptor in the Ca^2+/Fluo-4 assay essentially as previously described.^10 Briefly, the cells were split into poly-D-lysine-coated black 96-well plates with clear bottoms (6×10^4 cells/well). The following day the culture medium was aspirated and the cells were incubated in 50 μl assay buffer [Hanks Buffered Saline Solution containing 20 mM HEPES, 1 mM CaCl2, 1 mM MgCl2, 2.5 mM probenecid, pH 7.4] supplemented with 6 mM Fluo-4/AM at 37° C. for 1 hour. Next, the buffer was aspirated, the cells were washed once with 100 μl assay buffer, and then 100 μl assay buffer was added to the cells (in the antagonist experiments the compound was added at this point). […] The compounds were characterized in duplicate at least three times at each cell line.

[1] = read-out: 5-HT2A [pEC50 ± S.E.M.] (converted)
[2] = read-out: 5-HT2C [pEC50 ± S.E.M.] (converted)

Row | SMILES | EC50 (human 5-HT2A; read-out: 5-HT2A EC50) | EC50 (human 5-HT2A; [1]) | EC50 (5-HT2C; read-out: 5-HT2C EC50) | 5-HT2A Rmax ± S.E.M (human 5-HT2A; % of the Rmax of 5-HT) | Selectivity EC50 5-HT2C/EC50 5-HT2A (human 5-HT2A) | 5-HT2C Rmax ± S.E.M (5-HT2C) | other results
1 | CCc1cc(OC)c([C@H]2CCCNC2)cc1OC [Compound 31, (R)-3-(4-ethyl-2,5-dimethoxyphenyl)piperidine hydrochloride] | 110 nM | 115 nM | 640 nM |  |  |  | 
2 | CCSc1cc(OC)c([C@H]2CCCNC2)cc1OC [Compound 27, (R)-3-(2,5-dimethoxy-4-(ethylthio)phenyl)piperidine hydrochloride] | 190 nM | 186 nM | 780 nM |  |  |  | 
3 | Br.COc1cc([C@@H]2CCNC2)c(OC)cc1Br [Compound 4, (S)-3-(4-bromo-2,5-dimethoxyphenyl)pyrrolidine Hydrobromide] | 7.7 nM |  |  | 39 ± 4% | 2.3 | 16 ± 3% | EC50 (5-HT2C; [2]): 17.8 nM
4 | COc1cc(C(F)(F)F)c(OC)cc1[C@@H]1CCCN(C)C1 [Compound 61, (S)-3-(2,5-dimethoxy-4-(trifluoromethyl)phenyl)-1-methylpiperidine] | 390 nM | 398 nM | 920 nM | 19 ± 2% |  |  | loss of potency at 5-HT2A compared to compound 8 (factor) (human 5-HT2A): ~20
5 | CCOc1cc([C@H]2CCCNC2)c(OC)cc1CC.Cl [Compound 33, (R)-3-(5-ethoxy-4-ethyl-2-methoxyphenyl)piperidine hydrochloride] | 1100 nM | 1120 nM |  | 89 ± 4% | >10^e |  | 
6 | COc1cc(C(F)(F)F)c(SC)cc1[C@H]1CCCNC1.Cl [Compound 44, (R)-3-(2-methoxy-5-(methylthio)-4-(trifluoromethyl)phenyl)piperidine hydrochloride] | 71 nM |  | 660 nM | 96 ± 6% | 9.3 | 50 ± 2% | 
7 | COc1cc(CC(C)N)c(OC)cc1I (stereo not drawn) [drawing 22, reference compound] |  |  |  |  |  | 83 ± 8% | 5-HT2A Rmax ± S.E.M (human 5-HT2A): 88 ± 7%; EC50 (5-HT2C; 5-HT2C [pEC50 ± S.E.M.]): 3.39 nM
8 | COc1cc(C(F)(F)F)ccc1[C@H]1CCCNC1 [Compound 52, (R)-3-(2-methoxy-4-(trifluoromethyl)phenyl)piperidine hydrochloride] | 480 nM |  | 1400 nM | 77 ± 2% |  |  | 
9 | COc1cc([C@H]2CCCNC2)c(OC)cc1Cl [Compound 9, (R)-3-(4-Chloro-2,5-dimethoxyphenyl)piperidine] | 690 nM |  | 1800 nM |  |  |  | EC50 (5-HT2C; [2]): 1780 nM
10 | COc1cc(C(F)(F)F)c(OC)cc1C1CNC1.Cl [Compound 2, 3-(2,5-dimethoxy-4-(trifluoromethyl)phenyl)azetidine Hydrochloride] |  | 1 nM | 5.2 nM | 95 ± 2% | 5.2 | 87 ± 4% | 
11 | COc1cc([C@H]2CCCNC2)c(OC2CC2)cc1C(F)(F)F [Compound 54, (R)-3-(2-cyclopropoxy-5-methoxy-4-(trifluoromethyl)phenyl)piperidine hydrochloride] | 1800 nM | 1780 nM | 3000 to 10000 nM | 76 ± 4% |  | ~46-63^c % | 
12 | COc1cc(C(F)(F)F)c(OC)cc1[C@H]1CCNC1 [Compound 5, (R)-3-(2,5-dimethoxy-4-(trifluoromethyl)phenyl)pyrrolidine] | 11 nM | 10.5 nM |  | 45 ± 1% | 3.7 | 65 ± 4% | EC50 (5-HT2C; [2]): 40.7 nM
13 | CCN1CCC[C@H](c2cc(OC)c(C(F)(F)F)cc2OC)C1 [Compound 58, (R)-3-(2,5-dimethoxy-4-(trifluoromethyl)phenyl)-1-ethylpiperidine] |  |  |  |  |  |  | 5-HT2A agonist activity (n.a./w.a.) (human 5-HT2A; tested up to 50 μM): w.a. [@ 2-10-50; 5-HT2C agonist activity (n.a./w.a.) (5-HT2C): w.a.
14 | COc1cc([C@H]2CCCNC2)c(OC)cc1Br [Compound 11, (R)-3-(4-bromo-2,5-dimethoxyphenyl)piperidine] | 370 nM |  | 1900 nM |  |  |  | 
15 | COc1cc(C(F)(F)F)c(OC)cc1[C@@H]1CCNC1 [Compound 6, (S)-3-(2,5-dimethoxy-4-(trifluoromethyl)phenyl)pyrrolidine] | 5.4 nM |  |  | 35 ± 4% | 3.5 | 28 ± 2% | EC50 (5-HT2C; [2]): 19.1 nM
16 | CCOc1cc([C@H]2CCCNC2)c(OCC)cc1CC.Cl [Compound 40, (R)-3-(2,5-diethoxy-4-ethylphenyl)piperidine hydrochloride] | 7000 to 10000 nM |  |  | ~61-74^c % | >3^e |  | 
17 | COc1cc([C@H]2CCNC2)c(OC)cc1Br [Compound 3, (R)-3-(4-bromo-2,5-dimethoxyphenyl)pyrrolidine] | 5.3 nM | 7.76 nM |  | 57 ± 3% | 4.9 | 73 ± 3% | EC50 (5-HT2C; [2]): 25.7 nM
18 | CCN1CCC[C@@H](c2cc(OC)c(C(F)(F)F)cc2OC)C1 [Compound 59, (S)-3-(2,5-dimethoxy-4-(trifluoromethyl)phenyl)-1-ethylpiperidine] | 1500 nM |  |  | 44 ± 3% | >30^e |  | loss of potency at 5-HT2A compared to compound 8 (factor) (human 5-HT2A): ~80; 5-HT2C agonist activity (n.a./w.a.) (5-HT2C): w.a.
19 | COc1cc(C(F)(F)F)c(OC)cc1[C@H]1CCCNC1 [Compound 7, (R)-3-(2,5-Dimethoxy-4-(trifluoromethyl)phenyl)piperidine hydrochloride] |  |  | 860 nM |  |  |  | 
20 | COc1cc([C@H]2CCCNC2)c(OC)cc1SC [Compound 17, (R)-3-(2,5-dimethoxy-4-(methylthio)phenyl)piperidine hydrochloride] | 180 nM | 178 nM | 2300 nM |  |  |  | EC50 (5-HT2C; [2]): 2340 nM
21 | COc1cc(C(F)(F)F)c(OC)cc1[C@H]1CCCN(C)C1 [Compound 60, (R)3-(2,5-dimethoxy-4-(trifluoromethyl)phenyl)-1-methylpiperidine] | 1100 nM |  |  | 53 ± 8% |  |  | 5-HT2C agonist activity (n.a./w.a.) (5-HT2C): w.a.
22 | COc1cc(CCNCc2ccccc2O)c(OC)cc1C#N [drawing 23, reference compound] |  |  |  |  |  | 96 ± 7% | EC50 (5-HT2C; 5-HT2C EC50 (nM)): 47 nM
23 | CCSc1cc([C@H]2CCCNC2)c(OC)cc1C(F)(F)F.Cl [Compound 46, (R)-3-(2-methoxy-5-(ethylthio)-4-(trifluoromethyl)phenyl)piperidine hydrochloride] | 150 nM | 145 nM | 1100 nM | 97 ± 2% | 7.4 | 53 ± 5% | EC50 (5-HT2C; [2]): 1070 nM
24 | CCOc1cc([C@H]2CCCNC2)c(OC)cc1C(F)(F)F.Cl [Compound 19, (R)-3-(5-ethoxy-2-methoxy-4-(trifluoromethyl)phenyl)piperidine hydrochloride] | 320 nM | 316 nM |  | 86 ± 6% |  |  | 
25 | COc1cc([C@H]2CCCNC2)c(OC)cc1SC(C)C [Compound 25, (R)-3-(4-(isopropylthio)-2,5-dimethoxyphenyl)piperidine] | 290 nM |  |  |  |  |  | 
26 | CCOc1cc(C(F)(F)F)c(OCC)cc1[C@H]1CCCNC1.Cl [Compound 21, (R)-3-(2,5-diethoxy-4-(trifluoromethyl)phenyl)piperidine hydrochloride] | 3000 nM |  |  | 69 ± 4% | >10^e |  | 
27 | COc1cc([C@H]2CCCNC2)ccc1C(F)(F)F.Cl [Compound 48, (R)-3-(3-methoxy-4-(trifluoromethyl)phenyl)piperidine hydrochloride] | 1800 nM |  |  | 68 ± 7% | >50^e |  | 
28 | CCOc1cc(CC)c(OC)cc1[C@H]1CCCNC1 [Compound 42, (R)-3-(2-ethoxy-4-ethyl-5-methoxyphenyl)piperidine] | 1500 nM |  |  | 80 ± 9% | >10^e |  | 
29 | COc1cc([C@H]2CCCNC2)c(OC)cc1I [Compound 13, (R)-3-(4-Iodo-2,5-dimethoxyphenyl)piperidine] | 260 nM | 263 nM |  |  |  |  | 
